This passage reports GI50 and TGI results from PubChem BioAssay (NCI).

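Test compounds were applied to cells in 96-well plates for 48 hours at 5 doses. At the GI50, growth is halved. At the TGI there is no net growth.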

The first assay deals with LOX IMVI melanoma. Description: NCI anticancer screen, dose series, 48 h.
In the case of `O=c1cc(-c2ccccc2)[nH]c2ccccc12`, the GI50 is 2.72 µM and the TGI is above 100 µM.
With `COc1ccc(OC)c(NC(=O)C2=C(C)NC(C)=C(C(=O)Nc3cc(OC)ccc3OC)C2c2ccccc2)c1`, the TGI is above 100 µM.
With `COc1cc2c(c(OC)c1)C1c3ccccc3NC(=O)N1CC2` (centres undefined), the GI50 was 5.58 µM and the TGI is above 100 µM.
The compound `Cc1ccc(NC(=O)C(=O)C(C#N)c2ccccc2C)cc1C` (centres undefined) came in with a TGI above 55.3 µM.
Consider `O=C1c2cccnc2C(=O)c2nc3cc(N4CCN(C5CC5)CC4)ccc3nc21`, for which the GI50 is 0.416 µM and the TGI came to 1.86 µM.

The next assay deals with SK-MEL-5 melanoma. Put plainly: NCI anticancer screen, dose series, 48 h.
With `O=c1cc(-c2ccccc2)[nH]c2ccccc12`, the GI50 was 0.387 µM and the TGI was found to be 19.1 µM.
`COc1ccc(OC)c(NC(=O)C2=C(C)NC(C)=C(C(=O)Nc3cc(OC)ccc3OC)C2c2ccccc2)c1` came in with a TGI above 100 µM.
`COc1cc2c(c(OC)c1)C1c3ccccc3NC(=O)N1CC2` (centres undefined): the GI50 was 4.01 µM and the TGI was 15.3 µM.
`Cc1ccc(NC(=O)C(=O)C(C#N)c2ccccc2C)cc1C` (centres undefined): the TGI was above 100 µM.
As to `O=C1c2cccnc2C(=O)c2nc3cc(N4CCN(C5CC5)CC4)ccc3nc21`, the GI50 is 0.252 µM and the TGI came out at 0.686 µM.

Another assay deals with U251 CNS. Description: NCI anticancer screen, dose series, 48 h.
As to `O=c1cc(-c2ccccc2)[nH]c2ccccc12`, the GI50 was 0.573 µM and the TGI is above 100 µM.
Consider `COc1ccc(OC)c(NC(=O)C2=C(C)NC(C)=C(C(=O)Nc3cc(OC)ccc3OC)C2c2ccccc2)c1`, for which the TGI was above 100 µM.
Turning to `COc1cc2c(c(OC)c1)C1c3ccccc3NC(=O)N1CC2` (centres undefined), the GI50 was 4.38 µM and the TGI was above 100 µM.
For `Cc1ccc(NC(=O)C(=O)C(C#N)c2ccccc2C)cc1C` (centres undefined), the TGI was above 100 µM.
Take `O=C1c2cccnc2C(=O)c2nc3cc(N4CCN(C5CC5)CC4)ccc3nc21`: the GI50 is 0.383 µM and the TGI is 2.02 µM.

In another assay the test system is UACC-62 melanoma. Description: NCI anticancer screen, dose series, 48 h.
Consider `O=c1cc(-c2ccccc2)[nH]c2ccccc12`, for which the GI50 was 0.519 µM and the TGI was above 100 µM.
As to `COc1ccc(OC)c(NC(=O)C2=C(C)NC(C)=C(C(=O)Nc3cc(OC)ccc3OC)C2c2ccccc2)c1`, the TGI is above 100 µM.
For `COc1cc2c(c(OC)c1)C1c3ccccc3NC(=O)N1CC2` (centres undefined), the GI50 was 3.08 µM and the TGI was above 100 µM.
In the case of `Cc1ccc(NC(=O)C(=O)C(C#N)c2ccccc2C)cc1C` (centres undefined), the TGI was above 100 µM.
Take `O=C1c2cccnc2C(=O)c2nc3cc(N4CCN(C5CC5)CC4)ccc3nc21`: the GI50 was 0.222 µM and the TGI is 0.631 µM.

Another assay relates to SN12C renal. Put plainly: NCI anticancer screen, dose series, 48 h.
`O=c1cc(-c2ccccc2)[nH]c2ccccc12`: the GI50 was 1.73 µM and the TGI was above 100 µM.
Regarding `COc1ccc(OC)c(NC(=O)C2=C(C)NC(C)=C(C(=O)Nc3cc(OC)ccc3OC)C2c2ccccc2)c1`, the TGI is above 100 µM.
Take `COc1cc2c(c(OC)c1)C1c3ccccc3NC(=O)N1CC2` (centres undefined): the GI50 was 7.27 µM and the TGI is above 100 µM.
`Cc1ccc(NC(=O)C(=O)C(C#N)c2ccccc2C)cc1C` (centres undefined) gave a TGI above 100 µM.
Regarding `O=C1c2cccnc2C(=O)c2nc3cc(N4CCN(C5CC5)CC4)ccc3nc21`, the GI50 is 0.519 µM and the TGI was 1.88 µM.

The subject of a further assay is RPMI-8226 leukemia. Put plainly: NCI anticancer screen, dose series, 48 h.
For `O=c1cc(-c2ccccc2)[nH]c2ccccc12`, the GI50 is 1.18 µM and the TGI was above 63 µM.
As to `COc1ccc(OC)c(NC(=O)C2=C(C)NC(C)=C(C(=O)Nc3cc(OC)ccc3OC)C2c2ccccc2)c1`, the TGI is above 100 µM.
Take `COc1cc2c(c(OC)c1)C1c3ccccc3NC(=O)N1CC2` (centres undefined): the GI50 was 5.39 µM and the TGI was 68.2 µM.
Consider `Cc1ccc(NC(=O)C(=O)C(C#N)c2ccccc2C)cc1C` (centres undefined), for which the TGI was above 100 µM.
Take `O=C1c2cccnc2C(=O)c2nc3cc(N4CCN(C5CC5)CC4)ccc3nc21`: the GI50 is 2.4 µM and the TGI is 8.63 µM.

The next assay concerns HCT-116 colon. Description: NCI anticancer screen, dose series, 48 h.
Consider `O=c1cc(-c2ccccc2)[nH]c2ccccc12`, for which the GI50 was 0.547 µM and the TGI was above 100 µM.
Compound `COc1ccc(OC)c(NC(=O)C2=C(C)NC(C)=C(C(=O)Nc3cc(OC)ccc3OC)C2c2ccccc2)c1` returned a TGI above 100 µM.
In the case of `COc1cc2c(c(OC)c1)C1c3ccccc3NC(=O)N1CC2` (centres undefined), the GI50 is 3.69 µM and the TGI is above 100 µM.
`Cc1ccc(NC(=O)C(=O)C(C#N)c2ccccc2C)cc1C` (centres undefined) yielded a TGI above 63 µM.
`O=C1c2cccnc2C(=O)c2nc3cc(N4CCN(C5CC5)CC4)ccc3nc21`: the GI50 was 0.789 µM and the TGI worked out at 7.12 µM.

For a further assay, the system named is HCC-2998 colon. Put plainly: NCI anticancer screen, dose series, 48 h.
As to `O=c1cc(-c2ccccc2)[nH]c2ccccc12`, the GI50 was 0.639 µM.
With `COc1ccc(OC)c(NC(=O)C2=C(C)NC(C)=C(C(=O)Nc3cc(OC)ccc3OC)C2c2ccccc2)c1`, the TGI was above 100 µM.
`COc1cc2c(c(OC)c1)C1c3ccccc3NC(=O)N1CC2` (centres undefined): the GI50 is 3.31 µM and the TGI was above 100 µM.
As for `Cc1ccc(NC(=O)C(=O)C(C#N)c2ccccc2C)cc1C` (centres undefined), the TGI is above 82 µM.
Take `O=C1c2cccnc2C(=O)c2nc3cc(N4CCN(C5CC5)CC4)ccc3nc21`: the GI50 was 0.49 µM and the TGI turned out to be 1.83 µM.

The next assay has as its system MALME-3M melanoma. Put plainly: NCI anticancer screen, dose series, 48 h.
For the compound `O=c1cc(-c2ccccc2)[nH]c2ccccc12`, the GI50 was above 100 µM and the TGI is above 100 µM.
For the compound `COc1ccc(OC)c(NC(=O)C2=C(C)NC(C)=C(C(=O)Nc3cc(OC)ccc3OC)C2c2ccccc2)c1`, the TGI is above 100 µM.
For `COc1cc2c(c(OC)c1)C1c3ccccc3NC(=O)N1CC2` (centres undefined), the GI50 was 10.4 µM and the TGI worked out at 67.8 µM.
Take `Cc1ccc(NC(=O)C(=O)C(C#N)c2ccccc2C)cc1C` (centres undefined): the TGI was above 100 µM.
As for `O=C1c2cccnc2C(=O)c2nc3cc(N4CCN(C5CC5)CC4)ccc3nc21`, the GI50 is 0.178 µM and the TGI came out at 0.457 µM.

The test system of another assay is 786-0 renal. Put plainly: NCI anticancer screen, dose series, 48 h.
Regarding `O=c1cc(-c2ccccc2)[nH]c2ccccc12`, the GI50 was 2.81 µM and the TGI was above 100 µM.
`COc1ccc(OC)c(NC(=O)C2=C(C)NC(C)=C(C(=O)Nc3cc(OC)ccc3OC)C2c2ccccc2)c1` came in with a TGI above 100 µM.
As for `COc1cc2c(c(OC)c1)C1c3ccccc3NC(=O)N1CC2` (centres undefined), the GI50 is 4.63 µM and the TGI was above 100 µM.
`Cc1ccc(NC(=O)C(=O)C(C#N)c2ccccc2C)cc1C` (centres undefined) had a TGI above 100 µM.
In the case of `O=C1c2cccnc2C(=O)c2nc3cc(N4CCN(C5CC5)CC4)ccc3nc21`, the GI50 was 1.38 µM and the TGI was found to be 4 µM.
